Where “and” joins values, the source holds several entries; their conditions need not be identical. Equal values may be shown once.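 Growth conditions: 96-well plates. Treatment: test compound, 48 hours, 5 concentrations. Analysis: linear interpolation between bracketing concentrations; unreached endpoints set to highest concentration. At the GI50, growth is halved. TGI is the concentration that stops growth completely.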
Key:
Experiment in all cases: NCI-60 cell line screen, 48 h
CCRF-CEM leukemia = tested on: CCRF-CEM leukemia
OVCAR-4 ovarian = tested on: OVCAR-4 ovarian
HOP-92 NSCLC = tested on: HOP-92 NSCLC
SF-539 CNS = tested on: SF-539 CNS
OVCAR-8 ovarian = tested on: OVCAR-8 ovarian
HCT-116 colon = tested on: HCT-116 colon
KM12 colon = tested on: KM12 colon
HCT-15 colon = tested on: HCT-15 colon
OVCAR-3 ovarian = tested on: OVCAR-3 ovarian
ACHN renal = tested on: ACHN renal

SMILES | GI50 (CCRF-CEM leukemia) [µM] | TGI (CCRF-CEM leukemia) [µM] | GI50 (OVCAR-4 ovarian) [µM] | TGI (OVCAR-4 ovarian) [µM] | GI50 (HOP-92 NSCLC) [µM] | TGI (HOP-92 NSCLC) [µM] | GI50 (SF-539 CNS) [µM] | TGI (SF-539 CNS) | GI50 (OVCAR-8 ovarian) [µM] | TGI (OVCAR-8 ovarian) [µM] | GI50 (HCT-116 colon) [µM] | TGI (HCT-116 colon) | GI50 (KM12 colon) [µM] | TGI (KM12 colon) [µM] | GI50 (HCT-15 colon) [µM] | TGI (HCT-15 colon) [µM] | GI50 (OVCAR-3 ovarian) | TGI (OVCAR-3 ovarian) [µM] | GI50 (ACHN renal) [µM] | TGI (ACHN renal) [µM]
O=C(CSC(c1ccccc1)c1ccccc1)N/N=C/c1cccc(Cl)c1 | 0.755 | 31 | 15 | 30.8 | 21.2 | 37.2 | 18.8 | 33.3 µM | 17.6 | 39.6 | 15.7 | 29.1 µM | 17.3 | 33.2 | 19.6 | 38.6 | 21.4 µM | 38.9 | 13.7 | 26.6
CN(C)CCNC(=O)Cn1cc([N+](=O)[O-])c(=O)c2ccccc21 |  | > 100 |  |  |  |  |  | > 100 µM |  | > 100 |  | > 100 µM |  | > 100 |  | > 100 |  | > 100 |  | > 100
Cc1cc(=O)[nH]o1 |  |  |  | > 100 |  | > 100 |  | > 100 µM |  | > 100 |  | > 100 µM |  |  |  | > 100 |  | > 100 |  | > 100
O=C(Nc1ccc(Oc2ccc3nc(NC(=O)c4ccccc4)[nH]c3c2)cc1)Nc1cc(C(F)(F)F)ccc1F | 0.657 | > 9.17 | 0.678 | 2.71 | 0.887 | 8.81 | 1.81 | 18.5 µM | 0.764 | 5.08 | 1.09 | > 18.1 µM | 0.244 | 2 | 2.07 | > 25 | 1.04 µM | 6.12 | 1.84 | > 25
Cc1cnc(/C=N\NC(N)=S)c2cccc(N)c12 | 1.82 | > 24 | 3.4 | > 100 | 2.07 | > 100 | 0.596 | 3.7 µM and > 27.7 µM | 2.66 | > 100 | 4.41 | > 100 µM and 28.3 µM | 4.82 | > 100 | 3.59 | > 100 | 3.03 µM | > 100 | 1.51 | > 30.9
CCCC[N+](CCCC)=c1ccc2nc3c(C)cc(N(CC)CC)cc3sc-2c1 | 0.0923 | 3.42 | 0.0517 | 1.11 |  |  | 0.192 | 1.14 µM | 0.0703 | 2.16 |  |  | 0.113 | 1.34 |  |  | 0.12 µM | 1.15 | 0.187 | 1.06
C=CC(C)(O)/C=C/C=C(\C)C(CC1OC1(C)C)OC(=O)/C(C)=C\C (stereo not given) |  |  |  | > 100 |  | > 100 |  | > 100 µM |  | > 100 |  | > 100 µM |  | > 100 |  | > 100 |  | > 100 |  | > 100
COc1ccc(N=Nc2c(-c3ccccc3)nn(C(=O)CC(=O)Nc3cccc(Cl)c3)c2-c2ccccc2)cc1 |  | > 100 |  | > 100 |  | > 100 |  | > 100 µM |  | > 100 |  | > 100 µM |  | > 100 |  | > 100 |  | > 100 |  | > 100
O=c1c2ccccc2n2n1CC(O)C2 (stereo not given) |  | > 100 |  | > 100 |  | > 100 |  | > 100 µM |  | > 100 |  | > 100 µM |  | > 100 |  | > 100 |  | > 100 |  | > 24.6
C1C[S][Ge]2([S]CCO1)[S]CCOCC[S]2 | > 100 | > 100 | > 100 | > 100 | > 100 | > 100 | > 100 | > 100 µM |  |  | > 100 | > 100 µM |  |  | > 100 | > 100 |  |  | > 100 | > 100
O=C(c1ccccc1)c1ccc(OCCOc2ccc(Nc3ccccc3)cc2)cc1 |  | > 100 |  | 54.8 |  | 73.5 |  | > 100 µM |  | > 100 |  | > 100 µM |  | > 100 |  | > 100 |  | > 100 |  | 84.3
C/C(=N\N=C(\[Se])N1CCN(c2ccccn2)CC1)c1ccccn1 |  |  | 0.00554 | 3.31 | 0.0044 | 13.2 | 0.407 | 12.2 µM | 0.000541 | 20.6 | 0.00589 | 6.27 µM | 0.239 | 18.5 | 0.0118 | 17.3 |  |  | 0.00847 | 16.9
O=S(=O)(O)c1ccc(-c2nnc(-c3ccccn3)nc2-c2ccc(S(=O)(=O)O)o2)o1 |  |  |  | > 100 |  | > 100 |  | > 100 µM |  | > 100 |  | > 100 µM |  | > 100 |  | > 100 |  | > 100 |  | > 100
C=CC(C=O)C1(O)CCOC(=O)/C1=C\N (stereo not given) | > 100 | > 100 |  |  |  |  |  |  | > 100 | > 100 | > 100 | > 100 µM | > 100 | > 100 | > 100 | > 100 | > 100 µM | > 100 | > 100 | > 100
CCOc1cc2c(cc1O)/C(=N\O)C[C@@H]1[C@@H]2CC[C@]2(C)[C@@H](O)CC[C@@H]12 |  |  | 8.67 | > 100 | 14.8 | > 100 | 0.0269 |  |  | > 100 |  |  | 0.0797 |  |  | > 36.8 | 0.0114 µM and 0.0299 µM |  | 0.024 | > 49.5
CC(=O)c1cccc(NC(=O)C(=O)C(C2OC(=O)c3ccccc32)[N+](=O)[O-])c1 (stereo not given) |  | > 100 |  | > 100 |  | > 100 |  | > 100 µM |  |  |  | > 100 µM |  | > 100 |  | > 100 |  | > 100 |  | > 100
O=c1cccccc1NCCCCCCNc1cccccc1=O |  | > 100 |  | > 100 |  |  |  |  |  | > 100 |  | > 100 µM |  | > 100 |  | > 100 |  | > 100 |  | > 100

From PubChem BioAssay (NCI)
